# Measured values as given in PubChem BioAssay (NCI).
#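 Five concentrations, 48 hours, 96-well plates. GI50: concentration for 50% inhibition of growth. TGI is the concentration that stops growth completely.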
# What was measured:
# Experiment in all cases: NCI anticancer screen, dose series, 48 h
# HCT-15 colon = tested on: HCT-15 colon
# COLO 205 colon = tested on: COLO 205 colon
# OVCAR-8 ovarian = tested on: OVCAR-8 ovarian
# UO-31 renal = tested on: UO-31 renal
# SF-268 CNS = tested on: SF-268 CNS
# OVCAR-3 ovarian = tested on: OVCAR-3 ovarian
# A549 NSCLC = tested on: A549 NSCLC
# NCI-H522 lung = tested on: NCI-H522 lung
# NCI/ADR-RES ovarian = tested on: NCI/ADR-RES ovarian
# DU-145 prostate = tested on: DU-145 prostate
SMILES,TGI (HCT-15 colon),TGI (COLO 205 colon),TGI (OVCAR-8 ovarian),TGI (UO-31 renal),TGI (SF-268 CNS),TGI (OVCAR-3 ovarian),TGI (A549 NSCLC),TGI (NCI-H522 lung),GI50 (HCT-15 colon),GI50 (OVCAR-8 ovarian),GI50 (UO-31 renal),GI50 (SF-268 CNS),GI50 (OVCAR-3 ovarian),GI50 (A549 NSCLC),GI50 (NCI-H522 lung),GI50 (NCI/ADR-RES ovarian),TGI (NCI/ADR-RES ovarian),GI50 (DU-145 prostate),TGI (DU-145 prostate),GI50 (COLO 205 colon)
CCOc1ccc2c(c1)[n+]([O-])c(-c1ccc(Cl)cc1)c(N)[n+]2[O-],> 100 µM,> 100 µM,> 100 µM,> 100 µM,> 100 µM,> 100 µM,> 100 µM,> 100 µM,–,–,–,–,–,–,–,–,–,–,–,–
Cc1ccc(S(=O)(=O)OC2CSS(=O)CC2OS(=O)(=O)c2ccc(C)cc2)cc1 (configuration not stated),33.6 µM,24.1 µM,22.5 µM,33 µM,30.7 µM,31.8 µM,37.9 µM,22.6 µM,–,–,–,–,–,–,–,–,–,–,–,–
C=C1C(=O)O[C@H]2[C@H]1CC/C(COC(=O)NCc1cn(C)c3ccccc13)=C\CC[C@@]1(C)O[C@@H]21,2.17 µM,–,5.18 µM,2.62 µM,4.95 µM,2.3 µM,7.14 µM,2.44 µM,611 nM,1400 nM,1340 nM,1840 nM,1030 nM,2170 nM,1020 nM,2370 nM,12.3 µM,1260 nM,2550 nM,–
CC(=O)CC(=O)OC1CC(C)CCC1C(C)C (configuration not stated),> 100 µM,> 100 µM,> 100 µM,> 100 µM,> 100 µM,> 100 µM,> 100 µM,> 100 µM,–,–,–,–,–,–,–,–,–,–,–,–
CCN(CC)c1c(C(=O)/C=C/c2ccc(OC)cc2)c(-c2ccccc2)nn(C)c1=O,–,9.25 µM,> 100 µM,> 100 µM,73.1 µM,–,81 µM,–,–,–,–,–,–,–,–,–,–,–,–,–
Cc1ccc2nc(NC(=O)C(=O)C(C#N)c3nc4ccccc4s3)sc2c1 (configuration not stated),> 100 µM,38.4 µM,> 100 µM,> 100 µM,> 100 µM,56.3 µM,–,> 100 µM,–,–,–,–,–,–,–,–,–,–,–,–
COc1cc(C(=O)O[C@H](C(=O)NCCCCCNC(=O)[C@@H](OC(=O)c2cc(OC)cc3c(C)cccc23)[C@]2(C)CO2)[C@]2(C)CO2)c2cccc(C)c2c1,2.13 µM,–,–,> 100 µM,0.92 µM,10.6 µM,10.2 µM,> 22.3 µM,174 nM,–,2240 nM,< 30.4 nM,1610 nM,447 nM,565 nM,165 nM,0.584 µM,122 nM,–,286 nM
COc1ccc(Br)c(N/N=C2\CCCNC2=O)c1,> 100 µM,> 100 µM,> 100 µM,> 100 µM,–,> 100 µM,> 100 µM,> 100 µM,–,–,–,–,–,–,–,–,–,–,–,–
COc1ccc(C2=CC(c3ccc4c(c3)OCO4)c3c(c4ccccc4oc3=O)O2)cc1OC (configuration not stated),> 31.6 µM,> 22.6 µM,> 100 µM,> 100 µM,> 100 µM,–,> 100 µM,–,–,–,–,–,–,–,–,–,> 100 µM,–,> 100000 nM,–
CCS(CC)(CC)CC1CCCC2=CCC(P(=O)(c3ccccc3)c3ccccc3)CC21 (configuration not stated),21.8 µM,37.4 µM,31.4 µM,20.3 µM,26.1 µM,30.5 µM,18 µM,25.5 µM,–,–,–,–,–,–,–,–,–,–,–,–
CCC[CH2][Sn]1([CH2]CCC)[O]C(=O)c2cccnc2[O]1,3.66 µM,3.65 µM,7.64 µM,19.9 µM,–,8.16 µM,33 µM,1.67 µM,1900 nM,2250 nM,7320 nM,–,1910 nM,18200 nM,476 nM,–,–,–,–,1880 nM
